Read-outs that look alike come from different tables or passages of the source.
Key:
[1] = target: CRBN-DDB1 (Homo sapiens, UniProt Q96SW2); assay: HTRF binding of compounds to CRBN
Protocol: Compound activity was monitored in a Homogenous Time-Resolved Fluorescence (HTRF) assay using 1-[5-({2-[2-(2-{[2-(2,6-dioxopiperidin-3-yl)-1,3-dioxo-2,3-dihydro-1H-isoindol-4-yl]oxy}acetamido)ethoxy]ethyl}carbamoyl)pentyl]-3,3-dimethyl-2-[(1E,3E)-5-[(2E)-1,3,3-trimethyl-5-sulfo-2,3-dihydro-1H-indol-2-ylidene]penta-1,3-dien-1-yl]-3H-indol-1-ium-5-sulfonate as a fluorescent probe. […] Compounds were stored in dry, ambient temperatures at 10 mM. A 10-point, 1:3 dilution series was prepared from 10 mM stock concentrations in Echo-compatible LDV plates. 10 nL of each compound dilution series was dispensed into assays wells using an Echo 650 (Labcyte inc. USA). […] The assay was then allowed to incubate for 30 min at ambient temperature after transferring compound. […] Analysis and IC50 values were derived using KNIME analytics (KNIME Zurich) transformation and fitting within Collaborative Drug Discovery (Collaborative Drug Discovery USA). Ki was derived from the geometric mean of the IC50 values using the Cheng-Prustoff transformation.

[2] = target: GSPT1 (Homo sapiens, UniProt P15170+Q96SW2); assay: Immunofluorescence assay for GSPT1 degradation in CAL-51 cells (Example 10); type: cell-based; design: host or cells: CAL-51
Protocol: The representative compounds were tested in an immunofluorescence assay for their activity to degrade GSPT1. […] Compounds were stored at 10 mM DMSO stocks. […] Cells were subsequently rinsed with PBS and fixed in 10% Formalin solution (50 μl, Sigma HT5011)) for 20 mins at room temperature. […] Following three further PBS washes, 50 μL blocking buffer (1% BSA, Sigma A4503, in PBS) was added for 45 min for signal-to noise reduction. Primary antibody (human GSPT1, Sigma HPA052488) was diluted in blocking buffer (dil.1/300, 35 μL/well) and incubated with the cells overnight at 4° C. […] After three final PBS washes, samples were conserved in 100 μL PBS in the dark, until measurement. Image acquisition was performed on the Operetta High-Content Imager (Perkin-Elmer). […] For the determination of GSPT1 DC50 values, a custom algorithm implemented in the PerkinElmer image analysis software Harmony-Acapella® was developed. After user-defined setting of adjustment parameters, the analysis was run identically without human intervention for all image fields.
DAPI staining of the nuclei was used to determine the location of cells using standard nuclei detection modules. Segmentation artifacts were removed by threshold-based filters for area, roundness and intensity. The outline of the cells was determined analogously from the sum of the normalized, smoothed DAPI and Actin channel, starting from each nucleus. […] GSPT1 degradation (DC50) was calculated after normalization to controls and data import in CDD vault Database, using non-linear regression.

[3] = read-out: HTRF Class (Cereblon binding, HTRF IC50)
[4] = 6 h, read-out: IF Class (GSPT1 degradation, DC50)
[5] = read-out: IF Class (GSPT1 degradation, DC50), 6 h

Chain of GSPT1 (P15170 whole entry): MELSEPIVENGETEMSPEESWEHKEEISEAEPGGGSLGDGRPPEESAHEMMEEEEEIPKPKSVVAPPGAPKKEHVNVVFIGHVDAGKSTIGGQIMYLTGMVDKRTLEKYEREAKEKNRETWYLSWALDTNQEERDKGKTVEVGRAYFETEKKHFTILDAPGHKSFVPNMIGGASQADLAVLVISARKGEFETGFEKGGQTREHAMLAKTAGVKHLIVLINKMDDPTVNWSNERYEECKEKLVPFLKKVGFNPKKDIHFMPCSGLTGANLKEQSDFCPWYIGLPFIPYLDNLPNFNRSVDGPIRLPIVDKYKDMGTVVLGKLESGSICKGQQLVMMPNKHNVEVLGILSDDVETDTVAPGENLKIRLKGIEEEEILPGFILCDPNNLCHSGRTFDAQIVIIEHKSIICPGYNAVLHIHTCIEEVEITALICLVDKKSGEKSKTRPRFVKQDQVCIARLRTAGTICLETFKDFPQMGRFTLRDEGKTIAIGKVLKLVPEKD
Chain of GSPT1 (Q96SW2 whole entry): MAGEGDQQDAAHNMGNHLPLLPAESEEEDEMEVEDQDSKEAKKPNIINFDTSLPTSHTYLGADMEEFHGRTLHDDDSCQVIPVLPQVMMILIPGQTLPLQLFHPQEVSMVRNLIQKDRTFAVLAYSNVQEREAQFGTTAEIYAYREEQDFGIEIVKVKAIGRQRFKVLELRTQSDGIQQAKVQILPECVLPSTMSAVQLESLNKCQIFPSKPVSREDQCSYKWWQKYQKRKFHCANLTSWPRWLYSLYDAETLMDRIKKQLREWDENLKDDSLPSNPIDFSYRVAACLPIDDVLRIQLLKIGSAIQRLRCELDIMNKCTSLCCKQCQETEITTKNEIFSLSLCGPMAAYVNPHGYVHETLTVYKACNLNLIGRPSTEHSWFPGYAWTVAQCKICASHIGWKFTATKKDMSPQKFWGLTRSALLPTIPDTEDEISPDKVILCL
Chain of GSPT1 (Q16531 2-1140 partner limits assumed): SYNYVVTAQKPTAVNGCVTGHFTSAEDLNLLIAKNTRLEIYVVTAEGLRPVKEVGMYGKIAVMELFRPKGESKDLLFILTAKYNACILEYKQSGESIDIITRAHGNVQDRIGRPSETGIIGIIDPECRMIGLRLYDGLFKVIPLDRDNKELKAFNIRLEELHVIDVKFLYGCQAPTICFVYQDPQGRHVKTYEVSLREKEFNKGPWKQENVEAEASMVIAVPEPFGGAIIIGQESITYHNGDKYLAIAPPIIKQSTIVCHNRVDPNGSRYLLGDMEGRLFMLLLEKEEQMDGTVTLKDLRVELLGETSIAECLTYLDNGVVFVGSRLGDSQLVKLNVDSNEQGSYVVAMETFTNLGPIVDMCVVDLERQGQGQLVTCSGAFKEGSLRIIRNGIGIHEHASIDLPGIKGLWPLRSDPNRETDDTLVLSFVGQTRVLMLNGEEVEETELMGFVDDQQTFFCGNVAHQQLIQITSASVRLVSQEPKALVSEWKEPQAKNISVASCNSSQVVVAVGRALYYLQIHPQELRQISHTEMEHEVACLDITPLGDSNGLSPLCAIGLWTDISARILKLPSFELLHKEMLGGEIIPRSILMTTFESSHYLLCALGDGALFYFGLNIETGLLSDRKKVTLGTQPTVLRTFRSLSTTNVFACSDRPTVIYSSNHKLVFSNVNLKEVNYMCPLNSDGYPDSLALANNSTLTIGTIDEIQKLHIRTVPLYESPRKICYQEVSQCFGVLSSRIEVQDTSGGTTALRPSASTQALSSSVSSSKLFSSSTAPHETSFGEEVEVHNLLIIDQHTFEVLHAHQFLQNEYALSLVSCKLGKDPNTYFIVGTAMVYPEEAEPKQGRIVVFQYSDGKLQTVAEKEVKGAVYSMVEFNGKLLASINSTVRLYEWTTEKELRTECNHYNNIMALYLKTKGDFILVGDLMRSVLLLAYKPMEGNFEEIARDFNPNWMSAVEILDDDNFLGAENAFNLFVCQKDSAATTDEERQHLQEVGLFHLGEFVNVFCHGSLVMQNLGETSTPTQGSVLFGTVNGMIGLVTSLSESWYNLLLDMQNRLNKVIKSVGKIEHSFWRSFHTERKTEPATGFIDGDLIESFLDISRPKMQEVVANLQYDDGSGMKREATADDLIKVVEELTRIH
Chain of CRBN-DDB1 (Q96SW2 whole entry): as the sequence (Q96SW2 whole entry) above
Chain of CRBN-DDB1 (Q16531 whole entry partner): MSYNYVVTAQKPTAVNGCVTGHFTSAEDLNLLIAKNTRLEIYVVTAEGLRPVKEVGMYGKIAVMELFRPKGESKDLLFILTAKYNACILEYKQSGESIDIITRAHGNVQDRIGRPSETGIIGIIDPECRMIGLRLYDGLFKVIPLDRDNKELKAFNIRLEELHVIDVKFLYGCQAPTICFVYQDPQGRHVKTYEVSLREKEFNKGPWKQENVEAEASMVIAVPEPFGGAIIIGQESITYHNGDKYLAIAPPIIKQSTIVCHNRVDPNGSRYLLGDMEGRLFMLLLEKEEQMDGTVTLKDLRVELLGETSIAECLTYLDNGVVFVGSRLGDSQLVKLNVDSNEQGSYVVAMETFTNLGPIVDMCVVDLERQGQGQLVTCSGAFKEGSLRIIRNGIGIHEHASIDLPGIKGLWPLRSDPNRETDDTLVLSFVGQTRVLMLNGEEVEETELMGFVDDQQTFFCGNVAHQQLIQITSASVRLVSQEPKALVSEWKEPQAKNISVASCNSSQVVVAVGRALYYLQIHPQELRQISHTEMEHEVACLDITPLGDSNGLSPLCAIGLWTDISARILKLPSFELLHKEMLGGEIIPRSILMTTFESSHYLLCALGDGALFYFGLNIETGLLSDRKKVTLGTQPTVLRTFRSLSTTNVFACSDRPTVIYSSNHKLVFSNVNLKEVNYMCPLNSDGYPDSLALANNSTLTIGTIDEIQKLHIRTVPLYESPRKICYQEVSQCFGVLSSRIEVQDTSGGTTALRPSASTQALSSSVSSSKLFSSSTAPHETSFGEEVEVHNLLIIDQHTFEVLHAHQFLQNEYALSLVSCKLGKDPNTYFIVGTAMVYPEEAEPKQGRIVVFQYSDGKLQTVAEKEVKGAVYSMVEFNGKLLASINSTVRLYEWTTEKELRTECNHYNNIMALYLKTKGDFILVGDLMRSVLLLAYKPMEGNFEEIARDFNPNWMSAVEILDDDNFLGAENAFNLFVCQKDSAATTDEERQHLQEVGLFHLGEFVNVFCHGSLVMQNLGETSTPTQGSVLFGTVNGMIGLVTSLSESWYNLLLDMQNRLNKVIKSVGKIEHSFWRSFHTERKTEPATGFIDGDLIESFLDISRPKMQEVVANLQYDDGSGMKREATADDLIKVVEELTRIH

| IC50 [1, 3] [nM] | SMILES | other results |
| --- | --- | --- |
| 100 to 1000 | Cc1ccc(NC(=O)OCc2ccc3c(c2)C(=O)N(C2CCC(=O)NC2=O)C3)cc1 (stereo not shown) [Compound 162, (2-(2,6-dioxopiperidin-3-yl)-3-oxoisoindolin-5-yl)methyl p-tolylcarbamate] | DC50 [2, 4]: > 300 nM |
|  | Cc1c(Cl)ccc(NC(=O)OCc2ccc3c(c2)C(=O)N(C2CCC(=O)NC2=O)C3)c1F (stereo not shown) [Compound 180] | IC50 [1]: 100 to 1000 nM; DC50 [2, 5]: 30 to 300 nM |
| 100 to 1000 | Cc1cccc(NC(=O)OCc2ccc3c(c2)C(=O)N(C2CCC(=O)NC2=O)C3)c1 (stereo not shown) [Compound 160, (2-(2,6-dioxopiperidin-3-yl)-3-oxoisoindolin-5-yl)methyl m-tolylcarbamate] | DC50 [2, 4]: > 300 nM |
| 100 to 1000 | Cc1cc(C)nc(NC(=O)OCc2ccc3c(c2)C(=O)N(C2CCC(=O)NC2=O)C3)c1 (stereo not shown) [Compound 161, (2-(2,6-dioxopiperidin-3-yl)-3-oxoisoindolin-5-yl)methyl (4,6-dimethylpyridin-2-yl)carbamate] | DC50 [2, 4]: > 300 nM |
| 100 to 1000 | O=C1CCC(N2Cc3ccc(COC(=O)NC4(c5ccccc5)CC4)cc3C2=O)C(=O)N1 (stereo not shown) [Compound 171, (2-(2,6-dioxopiperidin-3-yl)-3-oxoisoindolin-5-yl)methyl (1-phenylcyclopropyl)carbamate] | DC50 [2, 4]: > 300 nM |
| 100 to 1000 | CC(C)(C)OC(=O)C12CC(NC(=O)OCc3ccc4c(c3)C(=O)N(C3CCC(=O)NC3=O)C4)(C1)C2 (stereo not shown) [Compound 224, tert-butyl 3-((((2-(2,6-dioxopiperidin-3-yl)-3-oxoisoindolin-5-yl)methoxy)carbonyl)amino)bicyclo[1.1.1]pentane-1-carboxylate] | DC50 [2, 4]: 30 to 300 nM |
|  | CC1(c2ccc(NC(=O)OCc3ccc4c(c3)C(=O)N(C3CCC(=O)NC3=O)C4)nc2)CC1 (stereo not shown) [Compound 188] | IC50 [1]: 100 to 1000 nM; DC50 [2, 5]: < 30 nM |
| 100 to 1000 | O=C1CCC(N2Cc3ccc(COC(=O)Nc4c(F)ccc(Cl)c4F)cc3C2=O)C(=O)N1 (stereo not shown) [Compound 178, (2-(2,6-dioxopiperidin-3-yl)-3-oxoisoindolin-5-yl)methyl (3-chloro-2,6-difluorophenyl)carbamate] | DC50 [2, 4]: > 300 nM |
| 100 to 1000 | Cc1cc(NC(=O)OCc2ccc3c(c2)C(=O)N(C2CCC(=O)NC2=O)C3)ccc1Cl (stereo not shown) [Compound 165, (2-(2,6-dioxopiperidin-3-yl)-3-oxoisoindolin-5-yl)methyl (4-chloro-3-methylphenyl)carbamate] | DC50 [2, 4]: < 30 nM |
| 100 to 1000 | CC(C)(C)c1cccc(NC(=O)OCc2ccc3c(c2)C(=O)N(C2CCC(=O)NC2=O)C3)n1 (stereo not shown) [Compound 170, (2-(2,6-dioxopiperidin-3-yl)-3-oxoisoindolin-5-yl)methyl (6-(tert-butyl)pyridin-2-yl)carbamate] |  |
| 100 to 1000 | O=C1CCC(N2Cc3ccc(COC(=O)Nc4ccc(F)c(OC(F)F)c4F)cc3C2=O)C(=O)N1 (stereo not shown) [Compound 191, (2-(2,6-dioxopiperidin-3-yl)-3-oxoisoindolin-5-yl)methyl (3-(difluoromethoxy)-2,4-difluorophenyl) carbamate] |  |
| < 100 | Cc1cc(F)c(NC(=O)OCc2ccc3c(c2)C(=O)N(C2CCC(=O)NC2=O)C3)c(F)c1 (stereo not shown) [Compound 166, (2-(2,6-dioxopiperidin-3-yl)-3-oxoisoindolin-5-yl)methyl (2,6-difluoro-4-methylphenyl)carbamate] |  |
| 100 to 1000 | O=C1CCC(N2Cc3ccc(COC(=O)Nc4cc(OC(F)(F)F)c(F)cc4F)cc3C2=O)C(=O)N1 (stereo not shown) [Compound 200, (2-(2,6-dioxopiperidin-3-yl)-3-oxoisoindolin-5-yl)methyl (2,4-difluoro-5-(trifluoromethoxy)phenyl)carbamate] |  |
| 100 to 1000 | CC(C)(C)[C@H]1C[C@@H](NC(=O)OCc2ccc3c(c2)C(=O)N(C2CCC(=O)NC2=O)C3)C1 (stereo partly drawn) [Compound 184, cis-(2-(2,6-dioxopiperidin-3-yl)-3-oxoisoindolin-5-yl)methyl ((1s,3s)-3-(tert-butyl)cyclobutyl)carbamate] |  |
| < 100 | Cc1cc(F)c(NC(=O)OCc2ccc3c(c2)C(=O)N(C2CCC(=O)NC2=O)C3)cc1Br (stereo not shown) [Compound 197, (2-(2,6-dioxopiperidin-3-yl)-3-oxoisoindolin-5-yl)methyl (5-bromo-2-fluoro-4-methylphenyl)carbamate] |  |
| < 100 | O=C1CCC(N2Cc3ccc(COC(=O)Nc4cc(C5CC5)ccc4F)cc3C2=O)C(=O)N1 (stereo not shown) [Compound 207, (2-(2,6-dioxopiperidin-3-yl)-3-oxoisoindolin-5-yl)methyl (5-cyclopropyl-2-fluorophenyl) carbamate] |  |
| < 100 | Cc1cc(F)c(NC(=O)OCc2ccc3c(c2)C(=O)N(C2CCC(=O)NC2=O)C3)cc1OC(C)C (stereo not shown) [Compound 230, (2-(2,6-dioxopiperidin-3-yl)-3-oxoisoindolin-5-yl)methyl (2-fluoro-5-isopropoxy-4-methylphenyl)carbamate] |  |
| < 100 | CCCOc1cc(NC(=O)OCc2ccc3c(c2)C(=O)N(C2CCC(=O)NC2=O)C3)c(F)cc1C (stereo not shown) [Compound 231, (2-(2,6-dioxopiperidin-3-yl)-3-oxoisoindolin-5-yl)methyl (2-fluoro-4-methyl-5-propoxyphenyl)carbamate] |  |
|  | CCOc1cc(NC(=O)OCc2ccc3c(c2)C(=O)N(C2CCC(=O)NC2=O)C3)c(F)cc1C (stereo not shown) [Compound 228] | IC50 [1]: < 100 nM |
| 100 to 1000 | Cc1cc(F)c(NC(=O)OCc2ccc3c(c2)C(=O)N(C2CCC(=O)NC2=O)C3)cc1C (stereo not shown) [Compound 208, (2-(2,6-dioxopiperidin-3-yl)-3-oxoisoindolin-5-yl)methyl (2-fluoro-4,5-dimethylphenyl)carbamate] |  |
|  | O=C1CCC(N2Cc3ccc(COC(=O)NC45CC(F)(C4)C5)cc3C2=O)C(=O)N1 (stereo not shown) [Compound 190] | IC50 [1]: 100 to 1000 nM |
| < 100 | Cc1cc(F)c(NC(=O)OCc2ccc3c(c2)C(=O)N(C2CCC(=O)NC2=O)C3)c(F)c1Cl (stereo not shown) [Compound 211, (2-(2,6-dioxopiperidin-3-yl)-3-oxoisoindolin-5-yl)methyl (3-chloro-2,6-difluoro-4-methylphenyl)carbamate] |  |
| 100 to 1000 | Cc1ccc(NC(=O)OCc2ccc3c(c2)C(=O)N(C2CCC(=O)NC2=O)C3)c(F)c1Cl (stereo not shown) [Compound 179, (2-(2,6-dioxopiperidin-3-yl)-3-oxoisoindolin-5-yl) methyl (3-chloro-2-fluoro-4-methylphenyl)carbamate] |  |
|  | O=C1CCC(N2Cc3ccc(COC(=O)NC45CC(N6CCCCC6)(C4)C5)cc3C2=O)C(=O)N1 (stereo not shown) [Compound 198] | IC50 [1]: 100 to 1000 nM |
| 100 to 1000 | Cc1cc(F)c(NC(=O)OCc2ccc3c(c2)C(=O)N(C2CCC(=O)NC2=O)C3)cc1OC(F)(F)F (stereo not shown) [Compound 204, (2-(2,6-dioxopiperidin-3-yl)-3-oxoisoindolin-5-yl) methyl (2-fluoro-4-methyl-5-(trifluoromethoxy)phenyl)carbamate] |  |
|  | Cc1cc(NC(=O)OCc2ccc3c(c2)C(=O)N(C2CCC(=O)NC2=O)C3)cc(Cl)c1C#N (stereo not shown) [Compound 177, (2-(2,6-dioxopiperidin-3-yl)-3-oxoisoindolin-5-yl)methyl(3-chloro-4-cyano-5-methylphenyl)carbamate] | IC50 [1]: 100 to 1000 nM |
| 100 to 1000 | COC(=O)C12CC(NC(=O)OCc3ccc4c(c3)C(=O)N(C3CCC(=O)NC3=O)C4)(C1)C2 (stereo not shown) [Compound 203, methyl 3-((((2-(2,6-dioxopiperidin-3-yl)-3-oxoisoindolin-5-yl)methoxy)carbonyl)amino)bicyclo[1.1.1]pentane-1-carboxylate] |  |
| 100 to 1000 | CCc1cccc(NC(=O)OCc2ccc3c(c2)C(=O)N(C2CCC(=O)NC2=O)C3)c1 (stereo not shown) [Compound 220, (2-(2,6-dioxopiperidin-3-yl)-3-oxoisoindolin-5-yl)methyl (3-ethylphenyl)carbamate] |  |
| < 100 | COc1cc(NC(=O)OCc2ccc3c(c2)C(=O)N(C2CCC(=O)NC2=O)C3)c(F)cc1C (stereo not shown) [Compound 229, (2-(2,6-dioxopiperidin-3-yl)-3-oxoisoindolin-5-yl)methyl (2-fluoro-5-methoxy-4-methylphenyl)carbamate] |  |

| SMILES | IC50 [1, 3] [nM] | other results |
| --- | --- | --- |
| CC(C)(C)OC(=O)NC12CC(NC(=O)OCc3ccc4c(c3)C(=O)N(C3CCC(=O)NC3=O)C4)(C1)C2 (stereo not shown) [Compound 196, tert-butyl((2-(2,6-dioxopiperidin-3-yl)-3-oxoisoindolin-5-yl)methyl)bicyclo[1.1.1]pentane-1,3-diyldicarbamate] | < 100 | DC50 [2, 4]: > 300 nM |
